{"source": "patent US20110251220A1", "about": "“Pharmaceutical compositions comprising gamma secretase modulators” (priority 2008, published 2011)", "key": {"MM cells": {"tested_on": "MM cells", "assay": "Proliferation assay (CellTiter-Glo), concentration of 50% growth inhibition", "format": "cell-based", "conditions": "Homo sapiens; read-out: Concentration at which 50% cell growth inhibition was observed", "method": "Human MM cell lines used were as follows: NCI-H929, OPM-2, LP-1, RPMI-8226, U266 (DSMZ, Braunschweig, Germany). Cell lines were cultured in RPMI 1640 medium (Biochrom, Berlin, Germany) supplemented with 10% heat-inactivated fetal calf serum (FCS, Gibco, Karlsruhe, Germany), 1 mM sodium pyruvate and 100 units/ml penicillin and 100 μg/ml streptomycin (Gibco). Human osteoclasts were obtained as described in the reference of Zavrski I, Krebbel H, Wildemann B, et al. Proteasome inhibitors abrogate osteoclast differentiation and osteoclast function. Biochem Biophys Res Commun. 2005; 333:200-205. Briefly, peripheral blood mononuclear cells (PBMC) were isolated from whole blood of healthy volunteers, using a Ficoll-Hypaque density gradient. The adherent fraction of the isolated mononuclear cells was cultured for 21 days in MEM medium (Sigma-Aldrich Chemie, Taufkirchen, Germany) supplemented with 10% FCS, 100 U/ml penicillin, 100 μg/ml streptomycin, 50 ng/ml M-CSF, and 25 ng/ml RANKL (osteoclastogenic medium), before coculture experiments and treatment with the inventive compounds started. Human osteoblasts were obtained according to Robey P G, Termine J D. Human bone cells in vitro. Calcif Tissue Int. 1985; 37:453-460 as described in Hecht M, Heider U, Kaiser M, von Metzler I, Sterz J, Sezer O. Osteoblasts promote migration and invasion of myeloma cells through upregulation of matrix metalloproteinases, urokinase plasminogen activator, hepatocyte growth factor and activation of p38 MAPK. Br J Haematol. 2007; 138: 446-458. Briefly, trabecular bone specimens from patients without malignant disease undergoing knee or hip surgery were minced and washed to remove bone marrow cells. The bone fragments were resuspended in Dulbecco's modified Eagle's medium (DMEM)/HAM's F12 medium (Biochrom, Berlin, Germany) supplemented with 10% FCS and cultured in tissue culture flasks until a confluent cell monolayer was obtained. Culturing of functional osteoblasts was confirmed by alkaline phosphatase (ALP) staining (kit from Sigma, USA), realtime RT-PCR analysis of expression of osteoblast markers (ALP, osteocalcin) and by von-Kossa staining before coculture and treatment experiments were started.\nThe compound according to example 1, hereinafter referred to as GSI15, (compound RH02015SC, Maybridge, Acros Organics, Geel, Belgium) was freshly dissolved as 26 mM stock solution in Dimethylsulfoxide (DMSO). Multiple myeloma therapeutics used were melphalan (marketed as Alkeran®, GlaxoSmithKline, Munich, Germany) and bortezomib (marketed as Velcade®, Janssen-Cilag, Neuss, Germany). Melphalan was freshly dissolved at 10 mg/ml in 0.9% NaCl-solution. Bortezomib was freshly dissolved at 100 ng/ml in 0.9% NaCl solution. Gamma Secretase Inhibitor (GSI) treatment for apoptosis assessment by AnnexinV/PI staining, cell cycle analysis and coculture experiments was performed in 6-well plates. GSI15 stock solution was added directly to the cell suspension. GSI treatment for assaying proliferation was performed in 96-well plates. 10,000 cells per well were seeded in 50 μl medium per well before 50 μl of a 2× solution of GSI15 prediluted in medium were added per well. […]\n(§1) For assaying proliferation/viability of cells CellTiter-Glo Luminescent Cell Viability Assay (Promega, Mannheim, Germany) was used. In this assay the number of viable cells at a given time point is determined by quantification of ATP present, which serves as a measure of metabolically active cells. […]"}, "U266 cells": {"tested_on": "U266 cells", "assay": "Proliferation assay (CellTiter-Glo), U266 (Notch1 negative control)", "format": "cell-based, human", "conditions": "U266 (lacking Notch1), 48 h treatment", "method": "Human MM cell lines used were as follows: NCI-H929, OPM-2, LP-1, RPMI-8226, U266 (DSMZ, Braunschweig, Germany). Cell lines were cultured in RPMI 1640 medium (Biochrom, Berlin, Germany) supplemented with 10% heat-inactivated fetal calf serum (FCS, Gibco, Karlsruhe, Germany), 1 mM sodium pyruvate and 100 units/ml penicillin and 100 μg/ml streptomycin (Gibco). Human osteoclasts were obtained as described in the reference of Zavrski I, Krebbel H, Wildemann B, et al. Proteasome inhibitors abrogate osteoclast differentiation and osteoclast function. Biochem Biophys Res Commun. 2005; 333:200-205. Briefly, peripheral blood mononuclear cells (PBMC) were isolated from whole blood of healthy volunteers, using a Ficoll-Hypaque density gradient. The adherent fraction of the isolated mononuclear cells was cultured for 21 days in MEM medium (Sigma-Aldrich Chemie, Taufkirchen, Germany) supplemented with 10% FCS, 100 U/ml penicillin, 100 μg/ml streptomycin, 50 ng/ml M-CSF, and 25 ng/ml RANKL (osteoclastogenic medium), before coculture experiments and treatment with the inventive compounds started. […]\nas §1"}}}
{"smiles": "CC(C)c1ccc(S(=O)(=O)Nc2cccnc2Oc2ccc(Cl)cc2)cc1", "note": "[Example 1, N-(2-(4-chlorophenoxy)pyridin-3-yl)-4-isopropylbenzenesulfonamide]", "values": [{"measurement": "IC50", "setting": "MM cells", "value": 20, "unit": "µM"}, {"measurement": "proliferation", "setting": "U266 cells", "value": "almost not affected"}]}
